Assay results published in PubChem BioAssay AID789 (SRMLSC, 2007).
pIC50: −log10 of the molar value. Active and inactive are the calls of the source. The rule behind the calls is not given here.

Legend:
[1] = test system: S. cerevisiae apl2Δ mutant growth inhibition; test: growth inhibition of apl2Δ yeast, dose response, selectivity assay for post-Golgi transport modulator project, S. cerevisiae, secondary screen, background strain comparison (AID 789)
[2] = as above; conditions: for pIC50: S. cerevisiae background (wild-type parent) strain growth inhibition; for growth inhibition: S. cerevisiae apl2Δ mutant growth inhibition, at 25 µM (top of the series)

SMILES | IC50 [1] | pIC50 [2] | pIC50 [1] | growth inhibition [2]
Cc1ccc(C2N(c3ccc(Cl)c(Cl)c3)C(=O)C3CCCN32)o1 (stereo not drawn) | > 10 µM (inactive) | < 5.00 |  | 
Cc1ccc(-n2cc3c(-c4cccc(Br)c4)nnc(C)c3n2)cc1 | 15.4 µM (inactive) | 4.87 |  | 
ON=Cc1cccn1-c1ccccc1 | > 10 µM (inactive) | < 5.00 |  | 
O=C(CN1CCN(c2ccccn2)CC1)Nc1ccc(Oc2ccccc2)cc1 | > 10 µM (inactive) |  |  | 
Clc1ccc(-c2n[nH]c3c2CCC3)c(Cl)c1 | 1.12 µM (inactive) | 6.29 |  | 
Cc1nc(NC(=O)c2ccccc2)sc1-c1csc(Nc2ccc(F)cc2)n1 | > 10 µM (inactive) | < 5.00 |  | 
C/C(CCC12CC3CC(CC(C3)C1)C2)=N\NC(N)=S |  | 5.28 | 5.31 | 
Clc1cc(Br)ccc1OCCOCCN1CCOCC1 | > 10 µM (inactive) | < 5.00 |  | 
O=[N+]([O-])c1ccc(N2CCN(S(=O)(=O)c3ccc(Cl)cc3)CC2)cc1NCc1cccnc1 | > 10 µM (inactive) | < 5.00 |  | 
CCC(C)(C)NC(=O)CN(C(=O)CCC(=O)Nc1ccccn1)c1ccc(F)c(Cl)c1 | > 10 µM (inactive) | < 5.00 |  | 
CC(C)c1ccc(C(=O)CSc2n[nH]c(-c3ccncc3)n2)cc1 |  |  | 4.77 | 
N=c1c2c(-c3ccccc3)c(-c3ccccc3)n(Cc3ccco3)c2ncn1Cc1ccco1 |  | 4.67 | 4.78 | 
NC(=O)c1ccsc1NC(=O)c1nc(-c2ccccc2)n(-c2ccccc2)n1 | > 10 µM (inactive) | < 5.00 |  | 
CCOC(=O)N1CCN(c2ccc(S(=O)(=O)N(Cc3ccccc3)Cc3ccccc3)cn2)CC1 | > 10 µM (inactive) | < 5.00 |  | 
Cc1ccc(Cl)c(OCCCCN(C)Cc2ccccc2)c1 |  | < 5.00 |  | 
O=C1CC(N2CCN(c3ccc(Cl)c(Cl)c3)CC2)C(=O)N1 (stereo not drawn) | > 10 µM (inactive) | < 5.00 |  | 
CCC(=O)N(CCO)Cc1cc2ccc(C)c(C)c2[nH]c1=O | > 10 µM (inactive) | < 5.00 |  | 
O=c1c2c3c(sc2ncn1/N=C/c1ccc([N+](=O)[O-])o1)CCCC3 | 2.1 µM (inactive) | 5.80 |  | 
O=C(NCC(=O)N(c1cccnc1)C(C(=O)NCc1ccco1)c1ccccc1)c1ccco1 (stereo not drawn) | > 10 µM (inactive) | < 5.00 |  | 
CCCCC1(CCCC)C(=O)NC(=Nc2cccc(C)c2)NC1=O | > 10 µM (inactive) | < 5.00 |  | 
Clc1ccc(Cn2nnc(-c3ccc(CN4CCOCC4)cc3)n2)cc1 |  | < 5.00 | 4.72 | 
CCCCOc1ccc(-c2ncc(C(=O)O)c(C)n2)cc1 | > 10 µM (inactive) | < 5.00 |  | 

SMILES | IC50 [1] | pIC50 [2] | pIC50 [1] | growth inhibition [2]
Cc1cc(NCCCN2CCOCC2)n2ncc(-c3ccc(Cl)cc3)c2n1 | > 10 µM (inactive) | < 5.00 |  | 
O=C(c1ccco1)N1CCN=C1SCc1cccnc1 | > 10 µM (inactive) | < 5.00 |  | 
CCn1c(-c2c[nH]c3ccccc23)n[nH]c1=S | > 10 µM (inactive) | < 5.00 |  | 
COC(=O)c1ccc(NC(=O)c2cn(-c3ccccc3)nc2-c2ccncc2)cc1 | > 10 µM (inactive) | < 5.00 |  | 
Cc1cccnc1Nc1nc(-c2ccccn2)cs1 | > 10 µM (inactive) | < 5.00 |  | 
COc1ccccc1N1CCN(C2CCN(C(=O)c3cc(OC)c(OC)c(OC)c3)CC2)CC1 | > 10 µM (inactive) | < 5.00 |  | 
Cc1c(Cl)c([N+](=O)[O-])nn1Cc1ccc(C(=O)N/N=C\c2cccc(Br)c2)o1 | > 10 µM (inactive) | < 5.00 |  | 
Cc1cc(Cl)cc(C)c1OCCCCN1CCOCC1 | > 10 µM (inactive) | < 5.00 |  | 
CC(Sc1ccsc1[N+](=O)[O-])C(=O)NCCc1ccc(Cl)cc1 (stereo not drawn) | > 10 µM (inactive) |  |  | 
COc1ccc2c(c1)C(C)=CC(C)(C)N2C(=O)CSc1nnc(-c2ccc(C)cc2)o1 | > 10 µM (inactive) | < 5.00 |  | 
CCc1ccc(N(C(=O)c2csnn2)C(C(=O)NC(C)(C)C)c2ccncc2)cc1 (stereo not drawn) | > 10 µM (inactive) | < 5.00 |  | 
CC(C)c1ccc(C2C3CSCC=C3C(C#N)=C(N)C2(C#N)C#N)cc1 (stereo not drawn) | 1.84 µM (inactive) | 6.07 |  | 
O=C(Cn1nnc(-c2ccc(S(=O)(=O)N3CCCC3)cc2)n1)NCC1CCCO1 (stereo not drawn) | > 10 µM (inactive) | < 5.00 |  | 
O=C(OCn1ncc(Br)c(Br)c1=O)c1c(F)cccc1F | > 10 µM (inactive) |  |  | 
Cc1ccc(NS(=O)(=O)c2cc(C(=O)N3CCOCC3)ccc2C)cc1 | > 10 µM (inactive) | < 5.00 |  | 
O=C(OCn1ncc(Cl)c(Cl)c1=O)c1cccc(C(F)(F)F)c1 |  | 5.45 |  | 
CCCc1cc(NCCCCO)n2c(nc3ccccc32)c1C#N | > 10 µM (inactive) | < 5.00 |  | 
Cc1ccc2cc(CN(CCO)Cc3nnnn3Cc3ccc(F)cc3)c(=O)[nH]c2c1 | > 10 µM (inactive) | < 5.00 |  | 
COc1ccc(C2=NC(C(F)(F)F)(C(F)(F)F)c3c(n(C)c(=O)n(C)c3=O)N2)cc1 | > 10 µM (inactive) | < 5.00 |  | 
Cc1cc(C)c2c(c1)/C(=C/C(=O)c1ccc(Br)s1)C(=O)N2 | 1.55 µM (inactive) | 5.85 |  | 
O=C1C=C(c2ccccc2)C(=O)N1Nc1ccccc1 | > 10 µM (inactive) |  |  | 
N[C@@H](Cc1c[nH]c2ccccc12)c1nnc(SCc2ccc(Cl)cc2)o1 |  | 4.69 |  | 

SMILES | IC50 [1] | pIC50 [2] | pIC50 [1] | growth inhibition [2]
O=C(COc1ccc(Cl)cc1)Nc1ccc(N2CCN(C(=O)c3ccco3)CC2)cc1 | > 10 µM (inactive) | < 5.00 |  | 
O=C(N/N=C/c1ccc(OC(=O)c2ccccc2)cc1)c1ccc(CN2CCOCC2)cc1 | > 10 µM (inactive) | < 5.00 |  | 
Cc1ccc(CN2CCN(/N=C/c3cc(Br)ccc3O)CC2)cc1 | > 10 µM (inactive) | < 5.00 |  | 
O=C(CCC(=O)OCC(=O)c1ccc(F)cc1)NC1CCCCC1 | > 10 µM (inactive) | < 5.00 |  | 
Clc1ccc(-c2n[nH]c3c2CCC3)cc1Cl | 2.74 µM (inactive) | 5.74 |  | 
CC(C)COC(=O)c1ccc2c(c1O)C(=O)c1ccccc1C2=O | > 10 µM (inactive) | < 5.00 |  | 
COc1ccc(NC(=O)N(C2CCCCC2)C(C)c2cccnc2)c(OC)c1 (stereo not drawn) |  | 4.78 | 4.90 | 
CCOC(=O)NC(Nc1ccc(S(N)(=O)=O)cc1)(C(=O)OCC)C(F)(F)F (stereo not drawn) | > 10 µM (inactive) | < 5.00 |  | 
COc1ccc(/C=C2\SC(=S)N(NC(=O)c3csc4c3CCCC4)C2=O)cc1 | > 10 µM (inactive) | < 5.00 |  | 
Cc1[nH]nc(N=CC2=C(O)CC(C)(C)CC2=O)c1-c1ccc(Cl)cc1 | > 10 µM (inactive) |  |  | 
CC1CCN(S(=O)(=O)c2ccc(NC(=O)CCN3C(=O)c4ccccc4C3=O)cc2)CC1 | > 10 µM (inactive) |  |  | 
Cc1cccc(-c2nnc(-c3cccc(NC(=O)Cc4cccs4)c3)o2)c1 |  | 4.82 |  | 
CC(c1nnc(SCn2nnc3ccccc3c2=O)n1-c1ccc(Cl)cc1)N(C)C (stereo not drawn) | > 10 µM (inactive) |  |  | 
N#Cc1ccccc1Cn1cc(C(=O)c2cccs2)c2ccccc21 | > 10 µM (inactive) |  |  | 
CC(=O)c1ccc(N2CCN(C(=O)c3ccc(Br)cc3)CC2)c(F)c1 |  | 5.18 |  | 
CCOC(=O)c1ccc(NC(=O)c2cn(-c3ccccc3)nc2-c2ccncc2)cc1 |  | 4.94 |  | 18.6% (inactive)
O=C(Nc1ccccc1)C1=C(O)CC(c2ccco2)CC1=Nc1ccccc1 (stereo not drawn) |  | < 5.00 |  | 
O=C(Nc1nnc(C2CC2)o1)c1ccc(S(=O)(=O)N2CCCc3ccccc32)cc1 |  | 5.50 |  | 30.1% (inactive)
CCCCCCCCNc1ncnc2ccccc12 |  | 4.83 |  | 
O=C(Nc1nnc(-c2ccccc2)o1)c1ccc(Cl)cc1 |  | 6.19 |  | 40.8% (inactive)
CC1CCC(C(C)C)C(OCC(O)CN2CCN(Cc3ccccc3)CC2)C1 (stereo not drawn) |  |  | 4.71 | 
CC12CCC(c3c(C(=O)Nc4nccs4)nn(-c4ccccc4)c31)C2(C)C (stereo not drawn) | > 10 µM (inactive) |  |  | 

SMILES | IC50 [1] | pIC50 [2] | pIC50 [1] | growth inhibition [2]
C=CCc1ccc(OCCCCN2CC(C)OC(C)C2)c(OC)c1 (stereo not drawn) |  | < 5.00 |  | 34.1% (inactive)
O=C(NCC(c1cccnc1)N1CCN(c2ccc(F)cc2)CC1)OCc1ccccc1 (stereo not drawn) |  |  | 4.63 | 
CC1CN(CCCCOc2ccc(C(C)C)cc2)CC(C)O1 (stereo not drawn) |  | < 5.00 |  | 
CCCCCOc1ccc(CN2CCOCC2)cc1Cl |  | < 5.00 |  | 
O=C(Nc1nnc(-c2cccs2)o1)c1cccc(C(F)(F)F)c1 | > 10 µM (inactive) |  |  | 
O=C(OCn1ncc(Br)c(Br)c1=O)c1ccccc1Cl | > 10 µM (inactive) |  |  | 
O=C(C1CCCN(S(=O)(=O)c2ccc(Cl)cc2)C1)N(Cc1cccs1)C1CC1 (stereo not drawn) | > 10 µM (inactive) |  |  | 
O=S1(=O)C=C(Sc2nc3ccccc3s2)c2ccccc21 | > 10 µM (inactive) |  |  | 
COc1ccc(OCCSc2nnc3sc4ccccc4n23)cc1 | > 10 µM (inactive) |  |  | 
CCOc1ccc(NC(=O)N(C2CCCCC2)C(C)c2cccnc2)cc1 (stereo not drawn) |  |  | 4.67 | 
CCOc1nc(SCCOc2ccccc2)nc(N(C)C)n1 | > 10 µM (inactive) |  |  | 
O=C1c2ccccc2C(=O)c2c1oc(C(F)(F)F)c2C(=O)c1ccccc1 |  | 5.66 |  | 
CCCCC(c1nnnn1Cc1ccco1)N1CCN(c2nc3ccccc3s2)CC1 (stereo not drawn) |  | 5.41 |  | 
O=S(=O)(Cc1ccccc1Cl)N1CCN(Cc2ccc3c(c2)OCO3)CC1 | > 10 µM (inactive) |  |  | 
CCCCC(=O)Nc1nc(C)c(-c2csc(Nc3ccc(Cl)cc3)n2)s1 |  | 5.20 |  | 
O=S1(=O)C=C(Sc2nnc(-c3ccccc3)o2)c2ccccc21 | > 10 µM (inactive) |  |  | 
N=c1c2c(-c3ccccc3)c(-c3ccccc3)n(Cc3ccco3)c2ncn1Cc1ccccc1 |  |  | 4.68 | 
O=C(Nc1nnc(-c2ccc3c(c2)CCCC3)o1)c1ccccc1 | > 10 µM (inactive) |  |  | 
O=C(CC(=O)c1cc(Cl)ccc1O)c1ccccc1 |  | 4.90 |  | 
O=C(N/N=C/c1ccc([N+](=O)[O-])o1)c1cc(-c2cccc(Br)c2)nc2ccccc12 |  | 5.33 |  | 42.1% (inactive)
Cc1ccc(OCC(O)CN2CCN(Cc3ccc4c(c3)OCO4)CC2)c(C)c1 (stereo not drawn) |  | < 5.00 |  | 
O=[N+]([O-])c1cc(Cl)cc(/C=N\Nc2ccccn2)c1O | > 10 µM (inactive) |  |  | 
